# From patent publication US20030119895A1, “Methods using a combination of a 3-heteroaryl-2-indolinone and a cyclooxygenase-2 inhibitor for the treatment of neoplasia” (Pharmacia Corporation, priority 1998, published 2003)
# What was measured:
# Assay type in all cases: cell-based
# [1] = test system: HUV-EC-C cells (human umbilical vein endothelial cells); experiment: HUV-EC-C Assay, a-FGF (ECGF)-stimulated [3H] thymidine incorporation; conditions: Mitogenesis in Endothelial Cells
# Description: The following protocol may also be used to measure the composition's activity:
# 1. […] After cells have detached from the flask, add an equal volume of assay medium and transfer to a 50 ml sterile centrifuge tube (Fisher Scientific; catalogue no. 05-539-6).
# 2. Wash the cells with about 35 ml assay medium in the 50 ml sterile centrifuge, tube by adding the assay medium, centrifuge for 10 minutes at approximately 200× g, aspirate the supernatant, and resuspend with 35 ml D-PBS. Repeat the wash two more times with D-PBS, resuspend the cells in about 1 ml assay medium/15 cm^2 of tissue culture flask. Assay medium consists of F12K medium (Gibco BRL; catalogue no. 21127-014)+0.5% heat-inactivated fetal bovine serum. Count the cells with a Coulter Counter.RTM.v Coulter Electronics, Inc.) and add assay medium to the cells to obtain a concentration of 0.8-1.0×10^5 cells/ml.
# 3. Add cells to 96-well flat-bottom plates at 100 μl/well or 0.8-1.0×10^4 cells/well; incubate about 24 h at 37° C., 5% CO2.
# 1. Make up two-fold drug titrations in separate 96-well plates, generally 50 μM on down to 0 μM. Use the same assay medium as mentioned in day 0, step 2 above. Titrations are made by adding […] of drug at 200 μM (4× the final well concentration) to the top well of a particular plate column. Since the stock drug concentration is usually 20 mM in DMSO, the 200 μM drug concentration contains 2% DMSO. Therefore, diluent made up to 2% DMSO in assay medium (F12K+0.5% fetal bovine serum) is used as diluent for the drug titrations in order to dilute the drug but keep the DMSO concentration constant. Add this diluent to the remaining wells in the column at 60 μl/well. Take 60 μl from the 120 μl of 200 μM drug dilution in the top well of the column and mix with the 60 μl in the second well of the column. Take 60 μl from this well and mix with the 60 μl in the third well of the column, and so on until two-fold titrations are completed. When the next-to-the-last well is mixed, take 60 μl of the 120 μl in this well and discard it. Leave the last well with 60 μl of DMSO/media diluent as a non-drug-containing control. Make 9 columns of titrated drug, enough for triplicate wells each for 1) VEGF (obtained from Pepro Tech Inc., catalogue no. 100-200, 2) endothelial cell growth factor (ECGF) (also known as acidic fibroblast growth factor, or aFGF) (obtained from Boehringer Mannheim Biochemica, catalogue no. 1439 600), and assay media control. ECGF comes as a preparation with sodium heparin.
# 2. Transfer 50 μl/well of the drug dilutions to the 96-well assay plates containing the 0.8-1.0×10^4 cells/100 μl/well of the HUV-EC-C cells from day 0 and […] incubate ~2 h at 37° C., 5% CO2.
# 3. In triplicate, add 50 μl/well of 80 ng/ml VEGF, 20 ng/ml ECGF, or media control to each drug condition. As with the drugs, the growth factor concentrations are 4× the desired final concentration. Use the assay media from day 0 step 2 to make the concentrations of growth factors. Incubate approximately 24 hours at 37° C., 5% CO2. Each well will have 50 μl drug dilution, 50 μl growth factor or media, and 100 ul cells,=200 ul/well total. Thus the 4× concentrations of drugs and growth factors become 1× once everything has been added to the wells.
# 1. Add ^3H-thymidine (Amersham; catalogue no. TRK-686) at 1 μCi/well (10 μl/well of 100 μCi/ml solution made up in RPMI media+10% heat-inactivated fetal bovine serum) and incubate about 24 h at 37° C., 5% CO2.
# Note: ^3H-thymidine is made up in RPMI media because all of the other applications for which we use the ^3H-thymidine involve experiments done in RPMI. The media difference at this step is probably not significant. RPMI was obtained from Gibco BRL, catalogue no. 11875-051.
# 1. Freeze plates overnight at −20° C.
# 1. Thaw plates and harvest with a 96-well plate harvester (Tomtec Harvester 96.RTM.) onto filter mats (Wallac; catalogue no. 1205-401); read counts on a Wallac Betaplate™ liquid scintillation counter.
# [2] = test system: HUV-EC-C cells (human umbilical vein endothelial cells); experiment: HUV-EC-C Assay, VEGF-stimulated [3H] thymidine incorporation; conditions: Mitogenesis in Endothelial Cells
# FGFR = experiment: FGF ligand-induced BrdU incorporation, mitogenesis in 3T3/EGFR cells
"IC50 ([2]; Homo sapiens, HUVEC) [µM]",SMILES,"IC50 ([1]; Homo sapiens, HUVEC) [µM]",other results
2,"Cc1cc(C=C2C(=O)Nc3ccccc32)[nH]n1 [SU5472, 3-[(3-Methylpyrazol-5-yl)methylene]-2-indolinone]",5,–
4.8,"COc1cccc(C=C2C(=O)Nc3ccccc32)c1OC [SU4794, 3-(2,3-dimethoxybenzylidenyl)-2-indolinone]",35.7,–
0.14,CCOC(=O)c1c[nH]c(C=C2C(=O)Nc3ccccc32)c1C [SU5463],7.9,–
–,"CCOC(=O)CCc1c(C=C2C(=O)Nc3ccccc32)[nH]c(C(=O)OCC)c1CC(=O)OCC [SU5465, 3-[(5-Ethoxycarbonyl-3-ethoxycarbonylethyl-4-ethoxylcarbonylmethylpyrrol-2-yl)methylene]-2-indolinone]",–,IC50 (FGFR): 25 µM
–,"O=C1Nc2ccccc2C1=Cc1c(Br)cnn1Cc1ccc(Cl)cc1 [SU5475, 3-[(4-Bromo-1-(4-chlorobenzyl)pyrazol-5-yl)methylene]-2-indolinone]",–,IC50 (FGFR): 9 µM
3.8,"Cn1cccc1C=C1C(=O)Nc2ccccc21 [SU5464, 3-[(1-Methylpyrrol-2-yl)methylene]-2-indolinone]",12.9,–
0.05,"CCc1c(C)[nH]c(C=C2C(=O)Nc3ccccc32)c1C [SU5477, 3-[(4-Ethyl-3,5-dimethylpyrrol-2-yl)methylene]-2-indolinone]",37.8,–
< 0.8,"CCOC(=O)c1c(C)[nH]c(C=C2C(=O)Nc3ccccc32)c1C [SU5408, 3-[(2,4-Dimethyl-3-ethoxycarbonylpyrrol-5-yl)methylene]-2-indolinone]",22.7,–
–,"Cc1cnc(C=C2C(=O)Nc3ccccc32)s1 [SU5469, 3-[(5-Methylthiazol-2-yl)methylene]-2-indolinone]",–,IC50 (FGFR): 15 µM
< 0.07,"O=C1Nc2ccccc2C1=Cc1cccn1-c1cc(Cl)cc(Cl)c1 [SU5461, 3-{[1-(3,5-Dichlorophenyl)pyrrol-2-yl]methylene}-2-indolinone]",< 0.07,–
34.3,"CN(C)c1ccc(C=C2C(=O)Nc3ccc(Cl)cc32)cc1 [SU4967, 5-Chloro-3-(4-dimethylaminobenzylidenyl)-2-indolinone]",16.3,IC50 (FGFR): 4.9 µM
2.9,"O=C1Nc2ccccc2C1=Cc1cccs1 [SU5208, 3-[(Thien-2-yl)methylene]-2-indolinone]",130,–
0.7,"CSc1ccc(C=C2C(=O)Nc3ccccc32)s1 [SU5419, 3-[(2-Methylmercaptothien-5-yl)methylene]-2-indolinone]",–,–
–,"O=C1Nc2ccccc2C1=Cc1c[nH]cn1 [SU5473, 3-[(Imidazol-4-yl)methylene]-2-indolinone]",–,IC50 (FGFR): 50 µM
–,"O=C1Nc2ccc(Cl)cc2C1=Cc1ccc(Br)cc1 [SU4972, 3-(4-Bromobenzylidenyl)-5-chloro-2-indolinone]",–,IC50 [1]: 1.4 µM
0.54,"Cc1cnc(C=C2C(=O)Nc3ccccc32)[nH]1 [SU5468, 3-[(5-Methylimidazol-2-yl)methylene]-2-indolinone]",8.7,–
5.1,"O=C1Nc2ccccc2C1=Cc1ccc(F)cc1 [SU5205, 3-(4-Fluorobenzylidenyl)-2-indolinone]",11.8,–
0.6,"O=C1Nc2ccccc2C1=Cc1ccc(N2CCOCC2)cc1 [SU4981, 3-[4-(Morpholin-4-yl)benzylidenyl]-2-indolinone]",–,IC50 (FGFR): 10 µM
–,"COc1ccc(Br)cc1C=C1C(=O)Nc2ccccc21 [SU4796, 3-(3-bromo-6-methoxybenzylidenyl)-2-indolinone]",–,IC50 [1]: 35.8 µM; IC50 [2]: 30.7 µM

"IC50 ([2]; Homo sapiens, HUVEC) [µM]",SMILES,"IC50 ([1]; Homo sapiens, HUVEC) [µM]",other results
4.4,"CCCCN(CCCC)c1ccc(C=C2C(=O)Nc3ccccc32)cc1 [SU4979, 3-(4-Di-n-butylaminobenzylidenyl)-2-indolinone]",4.9,–
0.9,"Cc1c(C=O)[nH]c(C=C2C(=O)Nc3ccccc32)c1C [SU5405, 3-[(3,4-Dimethyl-2-formylpyrrole-5-yl)methylene)-2-indolinone]",0.6,–
< 0.8,"Cc1c[nH]c(C=C2C(=O)Nc3ccccc32)c1C [SU5406, 3-[(3,4-Dimethylpyrrol-2-yl)methylene]-2-indolinone]",–,–
43.2,"O=C1Nc2ccccc2C1=Cc1ccco1 [SU4798, 3-[(furan-2-yl)methylene]-2-indolinone]",–,–
20,"CCc1c(C=C2C(=O)Nc3ccccc32)[nH]c(C(=O)O)c1C [SU5455, 3-[(5-Carboxy-3-ethyl-4-methylpyrrol-2-yl)methylene]-2-indolinone]",20,–
25.6,"CN(C)c1ccc(C=C2C(=O)N(C)c3ccccc32)cc1 [SU4952, 3-(4-Dimethylaminobenzylidenyl)-1-methyl-2-indolinone]",19.3,–
3.8,"CCOC(=O)CCc1c(C(=O)OCC)[nH]c(C=C2C(=O)Nc3ccccc32)c1CC(=O)OCC [SU5454, 3-[(5-Ethoxycarbonyl-4-ethoxycarbonylethyl-3-ethoxycarbonylmethylpyrrol-2-yl)methylene]-2-indolinone]",3.4,–
0.16,"O=C1Nc2ccccc2C1=Cc1ccc([N+](=O)[O-])o1 [SU5432, 3-[(2-Nitrofuran-5-yl)methylene]-2-indolinone]",0.14,–
–,"COc1ccccc1C=C1C(=O)Nc2ccccc21 [SU4949, 3-(2-Methoxybenzylidenyl)-2-indolinone]",–,IC50 [1]: 3.7 µM; IC50 [2]: 3.4 µM
1.2,"CCc1ccc(C=C2C(=O)Nc3ccccc32)s1 [SU5451, 3-[(2-Ethylthien-5-yl)methylene]-2-indolinone]",30,–
–,O=C1Nc2ccccc2C1=Cc1ccc(I)o1 [SU5409],–,IC50 [2]: 26 µM
11.4,"Cc1cc(C=C2C(=O)Nc3ccccc32)oc1C [SU5421, 3-[(2,3-Dimethylfuran-5-yl)methylene]-2-indolinone]",–,–
–,"O=C1Nc2ccccc2C1=Cc1ccc(Cl)c(Cl)c1 [SU5201, 3-(3,4-Dichlorobenzylidenyl)-2-indolinone]",–,IC50 [1]: 2.3 µM; IC50 [2]: 2.5 µM
39.8,"O=C1Nc2ccccc2C1=Cc1ccc(Br)o1 [SU5438, 3-[(5-Bromofuran-2-yl)methylene]-2-indolinone]",33,–
13.6,"O=C1Nc2ccccc2C1=Cc1sccc1Br [SU5418, 3-[(3-Bromothiene-2-yl)methylene]-2-indolinone]",40,–
–,O=C1Nc2ccccc2C1=Cc1ccc(-c2cc(C(F)(F)F)cc(C(F)(F)F)c2)o1 [SU5217],–,IC50 [1]: 10.5 µM; IC50 [2]: 9.6 µM
27.6,"O=C1Nc2ccccc2C1=Cc1ccco1 [SU5429, 3-[(Furan-2-yl)methylene]-2-indolinone]",–,–
–,O=C1Nc2ccccc2C1=Cc1cccn1-c1ccc(Cl)cc1 [SU5462],–,IC50 [1]: 0.8 µM; IC50 [2]: 0.5 µM

SMILES,"IC50 ([2]; Homo sapiens, HUVEC) [µM]","IC50 ([1]; Homo sapiens, HUVEC) [µM]",other results
"CC(=O)Nc1ccc(C=C2C(=O)Nc3ccccc32)cc1 [SU4799, 3-(4-acetamidobenzylidenyl)-2-indolinone]",19.9,–,–
"CN(C)c1c(C=C2C(=O)Nc3ccccc32)cc(C=C2C(=O)Nc3ccccc32)c(N(C)C)c1C#N [SU5218, 2,6-Di-(dimethylamino)-3,5-di-[(indolin-2-one-3-ylidenyl)methyl]-phenylcyanide]",2.4,2.7,–
